Paper PMC6366974, “The curcumin analog EF24 is a novel senolytic agent” (Aging (Albany NY), 2019)

Experiments:
[1] = tested on: WI-38 IR-induced senescent cells (IR-SCs); assay: Cell viability assay (flow cytometry, PI); format: cell-based, human; settings: WI-38, 72 h; for EC50: Homo sapiens
Experimental: (§1) Human WI-38 fibroblasts (WI-38, Cat. No. CCL-75), human IMR-90 fibroblasts (IMR-90, Cat. No. CCL-186), human umbilical vein endothelial cells (HUVEC, Cat. No. CRL-1730), human renal epithelial cells (HREC, Cat. No. PCS-400-012) and human pre-adipocytes (Cat. No. PCS-210-010) were newly purchased from the American Type Culture Collection (ATCC, Manassas, VA, USA). WI-38 and IMR-90 cells were cultured in complete Dulbecco’s modified Eagle medium (DMEM, Cat. No. 12430054, Thermo Fisher Scientific, Waltham, MA, USA) supplemented with 10% heat-inactivated fetal bovine serum (FBS, Cat. No. S11150H, Atlanta Biologicals, Flowery Branch, GA, USA), 100 U/mL penicillin and 100 µg/mL streptomycin (Pen Strep, Cat. No. 15140122, Thermo Fisher Scientific, Waltham, MA, USA) in a humidified incubator at 37°C and 5% CO2. HUVEC were cultured in EGM-2 BulletKit (Cat. No. CC-3162, Lonza, Basel, Switzerland) containing basal medium supplemented with growth factors, cytokines and other supplements according to the manufacturer’s protocol. HREC were cultured in renal epithelial cell basal medium (Cat. No. PCS-400-030, ATCC, Manassas, VA, USA) supplemented with renal epithelial cell growth kit (Cat. No. PCS400040, ATCC, Manassas, VA, USA). Human pre-adipocytes were cultured in fibroblast basal medium (Cat. No. PCS-201-030, ATCC, Manassas, VA, USA) supplemented with fibroblast growth kit-low serum (Cat. No. PCS201041, ATCC, Manassas, VA, USA). EF24 (Cat. No. E8409) and HO-3867 (Cat. No. S7501) were purchased from Sigma-Aldrich (St. Louis, MO, USA) and Selleckchem (Houston, TX, USA), respectively. DIMC (Cat. No. 10009986) and 2-HBA (Cat. No. 11879) were both purchased from Cayman Chemical (Ann Arbor, MI, USA).
(§2) Three different methods were used for the induction of SCs, including replicative exhaustion, ionizing radiation and ectopic Ras expression as previously described. Briefly, low-passage WI-38 cells (< 25 passages), IMR-90 cells (< 25 passages), HUVEC (< 10 passages), HREC (< 10 passages) and pre-adipocytes (< 4 passages) were used as NCs or for the induction of senescence. To induce replicative senescence (Rep-SCs), WI-38 and IMR-90 fibroblasts, HUVEC, HREC and pre-adipocytes were subcultured until they stopped to divide and became permanently growth arrested senescence after 38 passages (WI-38), 38 passages (IMR-90), 22 passages (HUVEC), 30 passages (HREC) and 10 passages (pre-adipocytes), respectively. To induce SCs by ionizing radiation (IR-SCs) and ectopic expression of Ras (Ras-SCs), WI-38 NCs were treated as previously described.
(§3) Number of viable cells were quantified using flow cytometry as previously described with slight modifications. Specifically, NCs and SCs were incubated with vehicle (0.1% DMSO) or a test compound at indicated concentrations for 72 h. Following dissociation with 0.25% Trypsin-EDTA (Cat. No. 25200056, Thermo Fisher Scientific, Waltham, MA, USA) at 37°C for 5 min, the cells were harvested in 100 µl pre-cooled phosphate buffered saline (PBS, Cat. No. 20012027, Thermo Fisher Scientific, Waltham, MA, USA) containing 2% FBS and 100 ng/mL propidium iodide (PI, P4170, Sigma-Aldrich, St. Louis, MO, USA) and analyzed using flow cytometry (LSR II, BD Biosciences, San Jose, CA, USA). Percentage of viable cells were determined by counting the number of PI negative cells (viable cells) and then calculated as a ratio of control cells treated with vehicle. In addition, dose-response curves were generated for each compound, and the concentration for 50% of maximal effect (EC50 values) was calculated using GraphPad Prism 6.

[2] = tested on: WI-38 Ras-induced senescent cells (Ras-SCs); assay: Cell viability assay (flow cytometry, PI); format: cell-based, human; settings: 72 h
Experimental: as §1, §2, §3

[3] = tested on: WI-38 non-senescent cells (NCs); assay: Cell viability assay (flow cytometry, PI); format: cell-based, human; settings: for EC50: Homo sapiens, WI-38, 72 h
Experimental: as §1, §2, §3

HREC NCs = assay: Cell viability assay (flow cytometry, PI); format: cell-based; settings: Homo sapiens, 72 h
Experimental: as §1, §2, §3

IMR-90 fibroblasts NCs = assay: Cell viability assay (flow cytometry, PI); format: cell-based; settings: Homo sapiens, IMR-90, 72 h
Experimental: as §1, §2, §3

[4] = tested on: WI-38 replication-exhausted senescent cells (Rep-SCs); assay: Cell viability assay (flow cytometry, PI); format: cell-based; settings: Homo sapiens; WI-38, 72 h, Table 2
Experimental: as §1, §2, §3

[5] = tested on: IMR-90 fibroblasts IR-SCs; assay: Cell viability assay (flow cytometry, PI); format: cell-based; settings: Homo sapiens, IMR-90, 72 h
HREC IR-SCs = assay: Cell viability assay (flow cytometry, PI); format: cell-based; settings: Homo sapiens, 72 h
WI-38 IR-SCs [6] = assay: ROS measurement (DHR staining, flow cytometry); format: cell-based, human; settings: 2 µM, 3 h and 6 h, DHR MFI
Experimental: (§4) WI-38 NCs and IR-SCs were incubated with vehicle or 2 µM EF24 for 3, 6, 24, or 72 h. After removal of suspension cells, adherent cells were detached using 0.25% Trypsin-EDTA at 37°C for 5 min. They were rinsed with DMEM once and then incubated with pre-warmed DMEM medium containing 1 µM dihydrorhodamine 123 (DHR, Cat. No. D23806, Thermo Fisher Scientific, Waltham, MA, USA) at 37°C for 30 min in dark. After washing in 4 mL DMEM with 100 ng/mL PI, cells were centrifuged immediately at 1,000 r.p.m. for 5 min to remove PI and re-suspended in DMEM medium for flow cytometry analysis. Mean fluorescence intensity (MFI) of PI negative cells was determined using the BD LSR II flow cytometer.

WI-38 NCs = assay: ROS measurement (DHR staining, flow cytometry); format: cell-based, human; settings: 2 µM, 3 h and 6 h, DHR MFI
Experimental: as §4

WI-38 IR-SCs [7] = assay: Combination treatment cell viability and coefficient of drug interaction (CDI); format: cell-based, human; settings: 72 h
Experimental: as §3
The data were analyzed by analysis of variance (ANOVA) with GraphPad Prism 6 (GraphPad Software, La Jolla, CA, USA). […] To detect the synergistic senolytic activities of EF24 and ABT263, CDI was calculated as previously described.

cancer cells = tested on: cancer cells; set-up: method as in PMID 15210154; settings: more potent than curcumin; cited from earlier work

Compound: O=C1/C(=C/c2ccccc2F)CNC/C1=C\c1ccccc1F [EF24]
- EC50 ([1]; Table 2): 1740 nM
- EC50 ([1]; WI-38 IR-SCs, 72 h, Table 1 screen of curcumin analogs): 1620 nM
- selective toxicity against IR-SCs versus NCs (viability) [1]: lesser toxicities to NCs
- sensitivity of WI-38 Ras-SCs compared with Rep-SCs and IR-SCs [2]: highest sensitivity
- EC50 ([3]; Table 2): 4320 nM
- EC50 ([3]; WI-38 NCs, 72 h, Table 1 screen of curcumin analogs): 4690 nM
- effect on the cell viability of WI-38 NCs ([3]; below 4 μM, 72 h): minimal effect
- EC50 (HREC NCs): 3250 nM
- EC50 (IMR-90 fibroblasts NCs): 10900 nM
- EC50 [4]: 1260 nM
- EC50 [5]: 1720 nM
- EC50 (HREC IR-SCs): 1150 nM
- ROS production in IR-SCs (WI-38 IR-SCs [6]): did not increase ROS production
- ROS production in NCs (WI-38 NCs): did not increase ROS production
- cell viability of IR-SCs, agent alone (WI-38 IR-SCs [7]): dose-dependently reduce
- potency in inducing cancer cell death relative to curcumin (cancer cells): 10 fold
